Measured values: paper PMC8219408, “Switching Cytolytic Nanopores into Antimicrobial Fractal Ruptures by a Single Side Chain Mutation” (ACS nano, 2021)
In brackets after ≈: the same amount, converted by molar mass. Read-outs that look alike come from different tables or passages of the source. Bridge positions count the residues as written; N and C are the ends. Square brackets hold non-standard residues; d marks the D form. Peptide text beside a SMILES is read from it. * marks the point of attachment. X1 = CC[C@H](C)CCCCC(=O)*; Dab = NCC[C@H](N)C(=O)O

Tests used:
[1] = tested on: P. aeruginosa (ATCC 27853); type: cell-based
Protocol: (§1) MIC values were obtained using broth microdilution against different bacteria following the protocols by Clinical and Laboratory Standards Institute. Specifically, each bacterium (100 μL of 0.5–1 × 10^6 CFU per ml) in Mueller Hinton media broth (Oxoid) was incubated in 96-well microtiter plates at 37 °C on a 3D orbital shaker. 100 μL of serial twofold peptide dilutions (from 100 to 0 μM) were used. Following peptide addition, absorbance (600 nm) was measured in a SpectraMax i3x multi-mode microplate reader (Molecular Devices). The lowest peptide concentrations inhibiting visible bacterial growth after 24 h at 37 °C was defined as MICs. All tests were performed in triplicate.

[2] = tested on: B. subtilis (ATCC 6633); type: cell-based
Protocol: as §1

[3] = tested on: E. coli (ATCC 15597); type: cell-based
Protocol: as §1

[4] = tested on: S. typhimurium (6192); type: cell-based
Protocol: as §1

[5] = tested on: S. aureus (ATCC 6538); type: cell-based
Protocol: as §1

[6] = tested on: M. luteus (ATCC 49732); type: cell-based
Protocol: as §1

[7] = tested on: K. pneumoniae (NCTC 5055); type: cell-based
Protocol: as §1

[8] = tested on: Human erythrocytes; test: Hemolysis assay; type: cell-based
Protocol: For hemolysis measurements 10% (vol/vol) suspensions of human erythrocytes with peptides were used. Phosphate buffer saline (PBS, 10 mM, pH 7.2) was used to rinse human red blood cells (4x) using repeated centrifugation and re-suspension (3 min, 3000 × g). The cells were incubated for 1 h at room temperature in deionized water (fully hemolysed control), with peptide in PBS or just PBS, which was followed by centrifugation (5 min, 10000 × g). The obtained supernatant was then separated from the pellet, and absorbance (550 nm) was measured in a SpectraMax i3x multi-mode microplate reader (Molecular Devices). Absorbance obtained for the suspension that was treated with deionized water gave complete (100%) hemolysis. Table S1 summarises the results, with the values corresponding to % hemolysis for peptide at 250 μM. All tests were performed in triplicate.

[9] = target: DLPC/DLPG (3:1 molar ratio) unilamellar vesicles; test: Isothermal titration calorimetry, anionic vesicles; conditions: ITC, peptide (500 μM) titrated into DLPC/DLPG (3:1) vesicles (380 μM total lipid), 25 °C, one-set binding model, duplicate; read-out: dissociation constant (KD)
Protocol: The lipids used for the assembly of unilamellar vesicles were from Avanti Polar Lipids: 1,2-dilauroylphosphatidylcholine (DLPC) was used for zwitterionic vesicles, while its mixture with 1,2-dilauroyl-sn-glycero-3-phospho-(1’-rac-glycerol) (DLPG) at a 3:1 molar ratio was used for anionic vesicles. After weighting up the lipid aliquots were dissolved in chloroform and dried under a nitrogen stream until a thin film was formed. The obtained film was subjected to hydration in 10 mM phosphate buffer (pH 7.4), which was followed by vortexing (1x, 2 min) and sonication (1x, 30 min). A hand-held extruder (Avanti Polar lipids) was used to extrude the resulting suspension (29x, polycarbonate filter, 0.05 μm) until a clear solution containing small unilamellar vesicles (SUV) was obtained. The SUVs were then analysed (50 nm) using a Zetasizer Nano (ZEN3600, Malvern Instruments, UK) and re-suspended to a final concentration of 1 mg/mL. The measurements were performed using a low volume disposable cuvette at 25°C. […]
A Microcal isothermal titration calorimeter-200 (ITC-200) was used to carry out all ITC experiments. […] Binding isotherms were recorded for peptides (500 μM) titrated into unilamellar phospholipid vesicles (380 μM, total lipid) in the cell. […]

[10] = K. pneumoniae (NCTC 5055), broth microdilution (CLSI), Mueller Hinton broth, 24 h at 37 °C, triplicate

Row | SMILES | Minimum inhibitory concentration ([1]; ATCC 27853, 24 h) | Minimum inhibitory concentration ([2]; ATCC 6633, 24 h) | Minimum inhibitory concentration ([3]; ATCC 15597, 24 h) | Minimum inhibitory concentration ([4]; 6192, 24 h) | Minimum inhibitory concentration ([5]; ATCC 6538, 24 h) | Minimum inhibitory concentration ([6]; ATCC 49732, 24 h) | Minimum inhibitory concentration ([7]; NCTC 5055, 24 h) | % hemolysis, at 250 μM ([8]; 250 µM, pH 7.2) | Kd [9] | hemolytic activity (in words) [8] | Minimum inhibitory concentration [7, 10] | Minimum inhibitory concentration ([1]; P. aeruginosa (ATCC 27853), broth microdilution (CLSI), Mueller Hinton broth, 24 h at 37 °C, triplicate) | Minimum inhibitory concentration ([2]; B. subtilis (ATCC 6633), broth microdilution (CLSI), Mueller Hinton broth, 24 h at 37 °C, triplicate) | Minimum inhibitory concentration ([3]; E. coli (ATCC 15597), broth microdilution (CLSI), Mueller Hinton broth, 0.5–1 × 10^6 CFU per ml, 24 h at 37 °C, absorbance 600 nm, triplicate) | Minimum inhibitory concentration ([4]; S. typhimurium (6192), broth microdilution (CLSI), Mueller Hinton broth, 24 h at 37 °C, triplicate) | Minimum inhibitory concentration ([5]; S. aureus (ATCC 6538), broth microdilution (CLSI), Mueller Hinton broth, 24 h at 37 °C, triplicate) | Minimum inhibitory concentration ([6]; M. luteus (ATCC 49732), broth microdilution (CLSI), Mueller Hinton broth, 24 h at 37 °C, triplicate) | % hemolysis, at 250 μM ([8]; peptide at 250 μM, 10% (vol/vol) human erythrocytes in PBS pH 7.2, 1 h at room temperature, absorbance 550 nm, deionized water = 100%, triplicate)
1 | CC(C)C[C@H](NC(=O)[C@H](CCCNC(=N)N)NC(=O)[C@H](CC(C)C)NC(=O)[C@H](C)NC(=O)[C@H](CC(C)C)NC(=O)[C@H](CCCNC(=N)N)NC(=O)[C@H](CC(C)C)NC(=O)[C@H](CC(C)C)NC(=O)[C@@H](N)CCCNC(=N)N)C(N)=O [bienA9] (H-RLLRLALRL-NH2; N-terminus assumed) | 50 µM (≈ 56.1 µg/mL) | 6 µM (≈ 6.73 µg/mL) | 6 µM (≈ 6.73 µg/mL) | 50 µM (≈ 56.1 µg/mL) | 25 µM (≈ 28.1 µg/mL) | 1.5 µM (≈ 1.68 µg/mL) | 50 µM (≈ 56.1 µg/mL) | 25% | 0.17 µM |  |  |  |  |  |  |  |  | 
2 | CC(C)C[C@H](NC(=O)[C@H](CC(C)C)NC(=O)[C@H](CCCNC(=N)N)NC(=O)[C@H](CC(C)C)NC(=O)[C@H](C)NC(=O)[C@H](CC(C)C)NC(=O)[C@H](CCCNC(=N)N)NC(=O)[C@H](CC(C)C)NC(=O)[C@H](CC(C)C)NC(=O)[C@@H](N)CCCNC(=N)N)C(N)=O [bienA10] (H-RLLRLALRLL-NH2; N-terminus assumed) | 25 µM (≈ 30.9 µg/mL) | 1.5 µM (≈ 1.85 µg/mL) | 3 µM (≈ 3.71 µg/mL) | 6 µM (≈ 7.41 µg/mL) | 3 µM (≈ 3.71 µg/mL) | 1.5 µM (≈ 1.85 µg/mL) | 3 µM (≈ 3.71 µg/mL) | 25% |  |  |  |  |  |  |  |  |  | 
3 | CC(C)C[C@H](NC(=O)[C@H](C)NC(=O)[C@H](CC(C)C)NC(=O)[C@H](CCCNC(=N)N)NC(=O)[C@H](CC(C)C)NC(=O)[C@H](CC(C)C)NC(=O)[C@@H](N)CCCNC(=N)N)C(=O)N[C@@H](CCCNC(=N)N)C(=O)N[C@@H](CC(C)C)C(=O)N[C@@H](CC(C)C)C(=O)N[C@@H](CCCNC(=N)N)C(N)=O [bienA11] (H-RLLRLALRLLR-NH2; N-terminus assumed) | 3 µM (≈ 4.18 µg/mL) | 6 µM (≈ 8.35 µg/mL) | 3 µM (≈ 4.18 µg/mL) | 12 µM (≈ 16.7 µg/mL) | 3 µM (≈ 4.18 µg/mL) | 1.5 µM (≈ 2.09 µg/mL) | 6 µM (≈ 8.35 µg/mL) | 25% |  | hemolytic |  |  |  |  |  |  |  | 
4 | CC(C)C[C@H](NC(=O)[C@H](CCCNC(=N)N)NC(=O)[C@H](CC(C)C)NC(=O)[C@H](CCCCN)NC(=O)[C@H](CC(C)C)NC(=O)[C@H](CCCNC(=N)N)NC(=O)[C@H](CC(C)C)NC(=O)[C@H](CC(C)C)NC(=O)[C@@H](N)CCCNC(=N)N)C(N)=O [bienK9] (H-RLLRLKLRL-NH2; N-terminus assumed) | 6 µM (≈ 7.08 µg/mL) | 3 µM (≈ 3.54 µg/mL) | 3 µM (≈ 3.54 µg/mL) | 50 µM (≈ 59 µg/mL) | 12 µM (≈ 14.2 µg/mL) | 1.5 µM (≈ 1.77 µg/mL) | > 50 µM | 0% | 2.12 µM |  |  |  |  |  |  |  |  | 
5 | CC(C)C[C@H](NC(=O)[C@H](CC(C)C)NC(=O)[C@H](CCCNC(=N)N)NC(=O)[C@H](CC(C)C)NC(=O)[C@H](CCCCN)NC(=O)[C@H](CC(C)C)NC(=O)[C@H](CCCNC(=N)N)NC(=O)[C@H](CC(C)C)NC(=O)[C@H](CC(C)C)NC(=O)[C@@H](N)CCCNC(=N)N)C(N)=O [bienK10] (H-RLLRLKLRLL-NH2; N-terminus assumed) | 25 µM (≈ 32.3 µg/mL) | 6 µM (≈ 7.76 µg/mL) | 3 µM (≈ 3.88 µg/mL) | 50 µM (≈ 64.6 µg/mL) | 25 µM (≈ 32.3 µg/mL) | 1.5 µM (≈ 1.94 µg/mL) | > 50 µM | 0% |  |  |  |  |  |  |  |  |  | 
6 | CC(C)C[C@H](NC(=O)[C@H](CC(C)C)NC(=O)[C@H](CCCNC(=N)N)NC(=O)[C@H](CC(C)C)NC(=O)[C@H](CCCCN)NC(=O)[C@H](CC(C)C)NC(=O)[C@H](CCCNC(=N)N)NC(=O)[C@H](CC(C)C)NC(=O)[C@H](CC(C)C)NC(=O)[C@@H](N)CCCNC(=N)N)C(=O)N[C@@H](CCCNC(=N)N)C(N)=O [bienK11] (H-RLLRLKLRLLR-NH2) | 12 µM (≈ 17.4 µg/mL) | 3 µM (≈ 4.35 µg/mL) | 3 µM (≈ 4.35 µg/mL) | 50 µM (≈ 72.4 µg/mL) | 12 µM (≈ 17.4 µg/mL) | 1.5 µM (≈ 2.17 µg/mL) | > 50 µM | 0% |  | non-hemolytic |  |  |  |  |  |  |  | 
7 | CC[C@H](C)[C@H](NC(=O)CN)C(=O)NCC(=O)N[C@@H](C)C(=O)N[C@H](C(=O)N[C@@H](CC(C)C)C(=O)N[C@@H](CCCCN)C(=O)N[C@H](C(=O)N[C@@H](CC(C)C)C(=O)N[C@H](C(=O)N[C@H](C(=O)NCC(=O)N[C@@H](CC(C)C)C(=O)N1CCC[C@H]1C(=O)N[C@@H](C)C(=O)N[C@@H](CC(C)C)C(=O)N[C@H](C(=O)N[C@@H](CO)C(=O)N[C@@H](Cc1c[nH]c2ccccc12)C(=O)N[C@H](C(=O)N[C@@H](CCCCN)C(=O)N[C@@H](CCCNC(=N)N)C(=O)N[C@@H](CCCCN)C(=O)N[C@@H](CCCNC(=N)N)C(=O)N[C@@H](CCC(N)=O)C(=O)N[C@@H](CCC(N)=O)C(N)=O)[C@@H](C)CC)[C@@H](C)CC)[C@@H](C)O)[C@@H](C)O)C(C)C)C(C)C [melittin, reference compound] |  |  |  |  |  |  |  |  |  |  | 3 µM (≈ 8.54 µg/mL) |  |  |  |  |  |  | 
8 | CC[C@H](C)CCCCC(=O)N[C@@H](CCN)C(=O)N[C@H](C(=O)N[C@@H](CCN)C(=O)N[C@H]1CCNC(=O)[C@H]([C@@H](C)O)NC(=O)[C@H](CCN)NC(=O)[C@H](CCN)NC(=O)[C@H](CC(C)C)NC(=O)[C@@H](Cc2ccccc2)NC(=O)[C@H](CCN)NC1=O)[C@@H](C)O [polymyxin B, reference compound] (X1-[Dab]T[Dab][Dab][Dab][dF]L[Dab][Dab]T; lactam 4-C (inferred); N-terminus assumed) |  |  |  |  |  |  |  |  |  |  | 3 µM (≈ 3.61 µg/mL) | 1.5 µM (≈ 1.81 µg/mL) | 3 µM (≈ 3.61 µg/mL) | 1.5 µM (≈ 1.81 µg/mL) | 1.5 µM (≈ 1.81 µg/mL) | 25 µM (≈ 30.1 µg/mL) | 1.5 µM (≈ 1.81 µg/mL) | 5%
